# Molecular target: NEK7 (human) (UniProt Q8TDX7)
# Assay: radiometric filter-binding kinase assay, Kinase HotSpot
# Conditions: compound 0.5 µM; ATP 10 µM
row,SMILES,residual activity [%]
1,CCOc1cc2ncnc(Nc3cccc(Br)c3)c2cc1OCC,98.6
2,O=C1NC(=O)c2c1c1c3ccccc3[nH]c1c1[nH]c3cc(Br)ccc3c21,96.8
3,O=c1[nH]c2ccccc2n1C1CCN(Cc2ccc(-c3nc4cc5[nH]cnc5cc4nc3-c3ccccc3)cc2)CC1,99.6
4,COc1cccc(-c2cc(=O)c3ccccc3o2)c1N,94.7

# Molecular target: PRKCB1 (human) (UniProt P05771)
# Assay: as above
# Conditions: compound 0.5 µM; ATP 10 µM
# Chain of PRKCB1 (human) (P05771 whole entry, looked up): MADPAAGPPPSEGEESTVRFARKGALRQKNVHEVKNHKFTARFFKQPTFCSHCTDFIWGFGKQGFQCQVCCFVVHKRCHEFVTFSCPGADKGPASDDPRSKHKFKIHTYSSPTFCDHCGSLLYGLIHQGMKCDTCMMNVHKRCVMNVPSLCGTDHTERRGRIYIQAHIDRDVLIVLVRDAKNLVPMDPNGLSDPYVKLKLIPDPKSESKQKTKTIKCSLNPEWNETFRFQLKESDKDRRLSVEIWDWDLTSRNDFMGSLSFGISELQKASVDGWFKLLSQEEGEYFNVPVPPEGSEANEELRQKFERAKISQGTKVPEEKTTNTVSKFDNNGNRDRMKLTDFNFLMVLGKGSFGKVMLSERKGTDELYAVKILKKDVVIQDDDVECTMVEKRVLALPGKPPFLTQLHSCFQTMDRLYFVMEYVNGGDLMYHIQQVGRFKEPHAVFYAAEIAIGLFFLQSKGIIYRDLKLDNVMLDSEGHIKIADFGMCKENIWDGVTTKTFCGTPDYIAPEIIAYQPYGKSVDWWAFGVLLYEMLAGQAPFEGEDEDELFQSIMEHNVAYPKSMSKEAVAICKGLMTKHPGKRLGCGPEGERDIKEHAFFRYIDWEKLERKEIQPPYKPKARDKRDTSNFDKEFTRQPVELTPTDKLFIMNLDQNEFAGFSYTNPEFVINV
row,SMILES,residual activity [%]
1,CCOc1cc2ncnc(Nc3cccc(Br)c3)c2cc1OCC,100
2,O=C1NC(=O)c2c1c1c3ccccc3[nH]c1c1[nH]c3cc(Br)ccc3c21,78.6
3,O=c1[nH]c2ccccc2n1C1CCN(Cc2ccc(-c3nc4cc5[nH]cnc5cc4nc3-c3ccccc3)cc2)CC1,108
4,COc1cccc(-c2cc(=O)c3ccccc3o2)c1N,98.5

# Molecular target: PASK (human) (UniProt Q96RG2)
# Assay: as above
# Conditions: compound 0.5 µM; ATP 10 µM
row,SMILES,residual activity [%]
1,CCOc1cc2ncnc(Nc3cccc(Br)c3)c2cc1OCC,92.3
2,O=C1NC(=O)c2c1c1c3ccccc3[nH]c1c1[nH]c3cc(Br)ccc3c21,86.3
3,O=c1[nH]c2ccccc2n1C1CCN(Cc2ccc(-c3nc4cc5[nH]cnc5cc4nc3-c3ccccc3)cc2)CC1,110
4,COc1cccc(-c2cc(=O)c3ccccc3o2)c1N,86.1

# Molecular target: CSNK1A1 (human) (UniProt P48729)
# Sequence (P48729 whole entry, looked up): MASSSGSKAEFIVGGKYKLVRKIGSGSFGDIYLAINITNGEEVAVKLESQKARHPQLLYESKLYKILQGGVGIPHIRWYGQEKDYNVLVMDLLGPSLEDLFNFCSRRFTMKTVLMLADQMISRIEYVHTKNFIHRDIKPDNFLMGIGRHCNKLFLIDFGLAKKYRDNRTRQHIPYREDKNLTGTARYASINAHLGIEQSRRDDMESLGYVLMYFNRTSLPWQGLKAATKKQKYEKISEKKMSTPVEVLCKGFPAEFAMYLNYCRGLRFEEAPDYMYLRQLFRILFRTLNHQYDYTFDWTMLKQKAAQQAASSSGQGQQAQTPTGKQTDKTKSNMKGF
# Assay: as above
# Conditions: compound 0.5 µM; ATP 10 µM
row,SMILES,residual activity [%]
1,CCOc1cc2ncnc(Nc3cccc(Br)c3)c2cc1OCC,98.6
2,O=C1NC(=O)c2c1c1c3ccccc3[nH]c1c1[nH]c3cc(Br)ccc3c21,95.4
3,O=c1[nH]c2ccccc2n1C1CCN(Cc2ccc(-c3nc4cc5[nH]cnc5cc4nc3-c3ccccc3)cc2)CC1,96
4,COc1cccc(-c2cc(=O)c3ccccc3o2)c1N,95.6

# Molecular target: NUAK2 (human) (UniProt Q9H093)
# Assay: as above
# Conditions: compound 0.5 µM; ATP 10 µM
row,SMILES,residual activity [%]
1,CCOc1cc2ncnc(Nc3cccc(Br)c3)c2cc1OCC,89.7
2,O=C1NC(=O)c2c1c1c3ccccc3[nH]c1c1[nH]c3cc(Br)ccc3c21,84.5
3,O=c1[nH]c2ccccc2n1C1CCN(Cc2ccc(-c3nc4cc5[nH]cnc5cc4nc3-c3ccccc3)cc2)CC1,90.4
4,COc1cccc(-c2cc(=O)c3ccccc3o2)c1N,82.9

# Molecular target: TAOK3 (human) (UniProt Q9H2K8)
# Sequence (Q9H2K8 whole entry, looked up): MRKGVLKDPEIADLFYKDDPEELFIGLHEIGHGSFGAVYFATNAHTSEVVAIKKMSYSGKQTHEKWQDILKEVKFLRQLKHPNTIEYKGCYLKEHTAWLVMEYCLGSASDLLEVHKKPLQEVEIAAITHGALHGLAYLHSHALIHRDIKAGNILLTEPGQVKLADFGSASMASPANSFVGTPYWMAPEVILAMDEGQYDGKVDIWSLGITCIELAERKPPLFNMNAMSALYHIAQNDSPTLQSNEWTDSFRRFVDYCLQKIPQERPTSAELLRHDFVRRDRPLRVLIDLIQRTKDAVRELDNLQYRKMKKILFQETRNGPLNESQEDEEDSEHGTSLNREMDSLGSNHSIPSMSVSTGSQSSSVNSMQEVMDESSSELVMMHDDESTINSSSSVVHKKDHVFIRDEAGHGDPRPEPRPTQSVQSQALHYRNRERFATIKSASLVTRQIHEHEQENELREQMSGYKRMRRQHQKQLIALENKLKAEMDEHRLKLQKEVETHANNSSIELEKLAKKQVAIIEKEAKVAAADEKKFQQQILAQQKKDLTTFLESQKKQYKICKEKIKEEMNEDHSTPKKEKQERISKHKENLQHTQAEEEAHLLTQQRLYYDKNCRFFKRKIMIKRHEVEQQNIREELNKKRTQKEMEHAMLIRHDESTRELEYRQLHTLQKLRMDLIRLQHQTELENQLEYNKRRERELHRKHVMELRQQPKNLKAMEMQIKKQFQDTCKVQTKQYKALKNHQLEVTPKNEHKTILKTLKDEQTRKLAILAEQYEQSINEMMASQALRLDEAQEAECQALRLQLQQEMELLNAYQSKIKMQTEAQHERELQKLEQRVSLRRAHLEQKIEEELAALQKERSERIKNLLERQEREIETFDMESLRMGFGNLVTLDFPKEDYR
# Assay: as above
# Conditions: compound 0.5 µM; ATP 10 µM
row,SMILES,residual activity [%]
1,CCOc1cc2ncnc(Nc3cccc(Br)c3)c2cc1OCC,96.2
2,O=C1NC(=O)c2c1c1c3ccccc3[nH]c1c1[nH]c3cc(Br)ccc3c21,82.3
3,O=c1[nH]c2ccccc2n1C1CCN(Cc2ccc(-c3nc4cc5[nH]cnc5cc4nc3-c3ccccc3)cc2)CC1,111
4,COc1cccc(-c2cc(=O)c3ccccc3o2)c1N,77

# Molecular target: MAP3K14 (human) (UniProt Q99558)
# Sequence (Q99558 whole entry, looked up): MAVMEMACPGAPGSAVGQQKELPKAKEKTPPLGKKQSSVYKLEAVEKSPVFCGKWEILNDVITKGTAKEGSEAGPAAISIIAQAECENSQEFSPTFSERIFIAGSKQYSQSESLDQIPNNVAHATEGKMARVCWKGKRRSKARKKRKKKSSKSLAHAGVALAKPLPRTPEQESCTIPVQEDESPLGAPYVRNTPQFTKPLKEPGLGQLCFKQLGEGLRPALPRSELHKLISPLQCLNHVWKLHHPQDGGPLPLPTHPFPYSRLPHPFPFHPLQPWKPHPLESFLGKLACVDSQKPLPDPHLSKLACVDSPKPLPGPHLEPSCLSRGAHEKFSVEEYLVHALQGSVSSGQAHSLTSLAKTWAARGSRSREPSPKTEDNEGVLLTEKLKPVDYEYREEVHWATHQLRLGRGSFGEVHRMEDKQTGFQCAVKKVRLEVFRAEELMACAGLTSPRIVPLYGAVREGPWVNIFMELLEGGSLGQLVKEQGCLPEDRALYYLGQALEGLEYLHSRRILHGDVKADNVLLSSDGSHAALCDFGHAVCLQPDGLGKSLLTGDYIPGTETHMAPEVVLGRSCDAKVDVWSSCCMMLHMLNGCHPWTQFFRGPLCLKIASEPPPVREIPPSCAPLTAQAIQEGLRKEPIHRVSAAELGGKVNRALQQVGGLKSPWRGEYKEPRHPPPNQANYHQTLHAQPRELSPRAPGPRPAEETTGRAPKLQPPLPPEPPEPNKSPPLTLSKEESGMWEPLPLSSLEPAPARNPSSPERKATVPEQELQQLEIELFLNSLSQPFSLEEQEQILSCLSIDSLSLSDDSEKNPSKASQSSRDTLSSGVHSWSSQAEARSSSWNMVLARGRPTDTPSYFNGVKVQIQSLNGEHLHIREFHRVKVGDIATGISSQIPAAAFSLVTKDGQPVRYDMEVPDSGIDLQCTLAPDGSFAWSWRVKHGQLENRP
# Assay: as above
# Conditions: compound 0.5 µM; ATP 10 µM
row,SMILES,residual activity [%]
1,CCOc1cc2ncnc(Nc3cccc(Br)c3)c2cc1OCC,93.4
2,O=C1NC(=O)c2c1c1c3ccccc3[nH]c1c1[nH]c3cc(Br)ccc3c21,101
3,O=c1[nH]c2ccccc2n1C1CCN(Cc2ccc(-c3nc4cc5[nH]cnc5cc4nc3-c3ccccc3)cc2)CC1,96.8
4,COc1cccc(-c2cc(=O)c3ccccc3o2)c1N,108

# Molecular target: RPS6KA5 KD2 (human) (UniProt O75582)
# Assay: as above
# Conditions: compound 0.5 µM; ATP 10 µM
row,SMILES,residual activity [%]
1,CCOc1cc2ncnc(Nc3cccc(Br)c3)c2cc1OCC,95.8
2,O=C1NC(=O)c2c1c1c3ccccc3[nH]c1c1[nH]c3cc(Br)ccc3c21,76.1
3,O=c1[nH]c2ccccc2n1C1CCN(Cc2ccc(-c3nc4cc5[nH]cnc5cc4nc3-c3ccccc3)cc2)CC1,103
4,COc1cccc(-c2cc(=O)c3ccccc3o2)c1N,96.4

# Molecular target: MKNK2 (human) (UniProt Q9HBH9)
# Assay: as above
# Conditions: compound 0.5 µM; ATP 10 µM
row,SMILES,residual activity [%]
1,CCOc1cc2ncnc(Nc3cccc(Br)c3)c2cc1OCC,34.3
2,O=C1NC(=O)c2c1c1c3ccccc3[nH]c1c1[nH]c3cc(Br)ccc3c21,44
3,O=c1[nH]c2ccccc2n1C1CCN(Cc2ccc(-c3nc4cc5[nH]cnc5cc4nc3-c3ccccc3)cc2)CC1,98.7
4,COc1cccc(-c2cc(=O)c3ccccc3o2)c1N,108

# Molecular target: AURKC (human) (UniProt Q9UQB9)
# Assay: as above
# Conditions: compound 0.5 µM; ATP 10 µM
row,SMILES,residual activity [%]
1,CCOc1cc2ncnc(Nc3cccc(Br)c3)c2cc1OCC,83.7
2,O=C1NC(=O)c2c1c1c3ccccc3[nH]c1c1[nH]c3cc(Br)ccc3c21,51.9
3,O=c1[nH]c2ccccc2n1C1CCN(Cc2ccc(-c3nc4cc5[nH]cnc5cc4nc3-c3ccccc3)cc2)CC1,96
4,COc1cccc(-c2cc(=O)c3ccccc3o2)c1N,95.3

# Molecular target: MST1R (human) (UniProt Q04912)
# Assay: as above
# Conditions: compound 0.5 µM; ATP 10 µM
row,SMILES,residual activity [%]
1,CCOc1cc2ncnc(Nc3cccc(Br)c3)c2cc1OCC,102
2,O=C1NC(=O)c2c1c1c3ccccc3[nH]c1c1[nH]c3cc(Br)ccc3c21,101
3,O=c1[nH]c2ccccc2n1C1CCN(Cc2ccc(-c3nc4cc5[nH]cnc5cc4nc3-c3ccccc3)cc2)CC1,111
4,COc1cccc(-c2cc(=O)c3ccccc3o2)c1N,93.4

# Molecular target: FES (human) (UniProt P07332)
# Assay: as above
# Conditions: compound 0.5 µM; ATP 10 µM
row,SMILES,residual activity [%]
1,CCOc1cc2ncnc(Nc3cccc(Br)c3)c2cc1OCC,96.8
2,O=C1NC(=O)c2c1c1c3ccccc3[nH]c1c1[nH]c3cc(Br)ccc3c21,88.1
3,O=c1[nH]c2ccccc2n1C1CCN(Cc2ccc(-c3nc4cc5[nH]cnc5cc4nc3-c3ccccc3)cc2)CC1,101
4,COc1cccc(-c2cc(=O)c3ccccc3o2)c1N,94.3

# Molecular target: TYRO3 (human) (UniProt Q06418)
# Assay: as above
# Conditions: compound 0.5 µM; ATP 10 µM
row,SMILES,residual activity [%]
1,CCOc1cc2ncnc(Nc3cccc(Br)c3)c2cc1OCC,92.2
2,O=C1NC(=O)c2c1c1c3ccccc3[nH]c1c1[nH]c3cc(Br)ccc3c21,89.7
3,O=c1[nH]c2ccccc2n1C1CCN(Cc2ccc(-c3nc4cc5[nH]cnc5cc4nc3-c3ccccc3)cc2)CC1,103
4,COc1cccc(-c2cc(=O)c3ccccc3o2)c1N,96.9

# Molecular target: CSF1R (human) (UniProt P07333)
# Assay: as above
# Conditions: compound 0.5 µM; ATP 10 µM
row,SMILES,residual activity [%]
1,CCOc1cc2ncnc(Nc3cccc(Br)c3)c2cc1OCC,87.6
2,O=C1NC(=O)c2c1c1c3ccccc3[nH]c1c1[nH]c3cc(Br)ccc3c21,96
3,O=c1[nH]c2ccccc2n1C1CCN(Cc2ccc(-c3nc4cc5[nH]cnc5cc4nc3-c3ccccc3)cc2)CC1,97
4,COc1cccc(-c2cc(=O)c3ccccc3o2)c1N,101

# Molecular target: PIM3 (human) (UniProt Q86V86)
# Assay: as above
# Conditions: compound 0.5 µM; ATP 10 µM
row,SMILES,residual activity [%]
1,CCOc1cc2ncnc(Nc3cccc(Br)c3)c2cc1OCC,105
2,O=C1NC(=O)c2c1c1c3ccccc3[nH]c1c1[nH]c3cc(Br)ccc3c21,4.69
3,O=c1[nH]c2ccccc2n1C1CCN(Cc2ccc(-c3nc4cc5[nH]cnc5cc4nc3-c3ccccc3)cc2)CC1,106
4,COc1cccc(-c2cc(=O)c3ccccc3o2)c1N,90.9

# Molecular target: TXK (human) (UniProt P42681)
# Assay: as above
# Conditions: compound 0.5 µM; ATP 10 µM
row,SMILES,residual activity [%]
1,CCOc1cc2ncnc(Nc3cccc(Br)c3)c2cc1OCC,80.2
2,O=C1NC(=O)c2c1c1c3ccccc3[nH]c1c1[nH]c3cc(Br)ccc3c21,90.3
3,O=c1[nH]c2ccccc2n1C1CCN(Cc2ccc(-c3nc4cc5[nH]cnc5cc4nc3-c3ccccc3)cc2)CC1,104
4,COc1cccc(-c2cc(=O)c3ccccc3o2)c1N,94.6

# Molecular target: DYRK4 (human) (UniProt Q9NR20)
# Sequence (Q9NR20 whole entry, looked up): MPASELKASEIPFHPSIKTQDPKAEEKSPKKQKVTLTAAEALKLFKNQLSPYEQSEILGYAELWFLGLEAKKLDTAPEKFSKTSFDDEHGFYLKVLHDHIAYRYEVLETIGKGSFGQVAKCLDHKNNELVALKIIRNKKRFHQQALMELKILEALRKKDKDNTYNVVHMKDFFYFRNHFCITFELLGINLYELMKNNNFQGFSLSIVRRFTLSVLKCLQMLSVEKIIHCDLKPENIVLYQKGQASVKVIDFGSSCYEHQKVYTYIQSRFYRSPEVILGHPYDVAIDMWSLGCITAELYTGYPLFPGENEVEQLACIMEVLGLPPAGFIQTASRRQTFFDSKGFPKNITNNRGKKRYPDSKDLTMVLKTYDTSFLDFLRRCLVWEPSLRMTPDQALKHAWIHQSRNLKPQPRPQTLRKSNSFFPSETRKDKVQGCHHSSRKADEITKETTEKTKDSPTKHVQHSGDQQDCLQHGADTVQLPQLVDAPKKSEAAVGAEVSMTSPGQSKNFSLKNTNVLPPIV
# Assay: as above
# Conditions: compound 0.5 µM; ATP 10 µM
row,SMILES,residual activity [%]
1,CCOc1cc2ncnc(Nc3cccc(Br)c3)c2cc1OCC,96.9
2,O=C1NC(=O)c2c1c1c3ccccc3[nH]c1c1[nH]c3cc(Br)ccc3c21,86
3,O=c1[nH]c2ccccc2n1C1CCN(Cc2ccc(-c3nc4cc5[nH]cnc5cc4nc3-c3ccccc3)cc2)CC1,109
4,COc1cccc(-c2cc(=O)c3ccccc3o2)c1N,108

# Molecular target: FER (human) (UniProt P16591)
# Sequence (P16591 whole entry, looked up): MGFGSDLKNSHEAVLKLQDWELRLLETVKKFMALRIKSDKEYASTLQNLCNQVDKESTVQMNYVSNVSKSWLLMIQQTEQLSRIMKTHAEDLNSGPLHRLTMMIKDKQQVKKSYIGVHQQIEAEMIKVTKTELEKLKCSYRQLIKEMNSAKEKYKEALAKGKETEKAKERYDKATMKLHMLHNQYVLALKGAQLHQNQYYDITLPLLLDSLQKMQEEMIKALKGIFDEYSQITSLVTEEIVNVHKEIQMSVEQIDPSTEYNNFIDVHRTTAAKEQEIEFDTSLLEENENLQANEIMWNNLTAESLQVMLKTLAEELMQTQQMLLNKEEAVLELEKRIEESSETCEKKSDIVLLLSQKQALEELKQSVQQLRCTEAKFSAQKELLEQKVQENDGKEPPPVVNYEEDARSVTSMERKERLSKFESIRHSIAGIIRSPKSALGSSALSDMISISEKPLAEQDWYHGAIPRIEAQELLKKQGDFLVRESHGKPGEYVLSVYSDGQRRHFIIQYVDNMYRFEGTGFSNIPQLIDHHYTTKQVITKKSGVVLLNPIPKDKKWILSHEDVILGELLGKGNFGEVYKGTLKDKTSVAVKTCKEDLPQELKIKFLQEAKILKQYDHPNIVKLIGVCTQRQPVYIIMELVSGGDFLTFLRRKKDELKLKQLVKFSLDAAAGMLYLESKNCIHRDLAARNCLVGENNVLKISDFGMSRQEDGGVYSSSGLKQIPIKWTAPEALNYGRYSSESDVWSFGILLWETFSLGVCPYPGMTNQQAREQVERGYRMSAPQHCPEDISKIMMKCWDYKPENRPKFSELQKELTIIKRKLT
# Assay: as above
# Conditions: compound 0.5 µM; ATP 10 µM
row,SMILES,residual activity [%]
1,CCOc1cc2ncnc(Nc3cccc(Br)c3)c2cc1OCC,90.7
2,O=C1NC(=O)c2c1c1c3ccccc3[nH]c1c1[nH]c3cc(Br)ccc3c21,88.9
3,O=c1[nH]c2ccccc2n1C1CCN(Cc2ccc(-c3nc4cc5[nH]cnc5cc4nc3-c3ccccc3)cc2)CC1,99.6
4,COc1cccc(-c2cc(=O)c3ccccc3o2)c1N,97.6

# Molecular target: ROS1 (human) (UniProt P08922)
# Assay: as above
# Conditions: compound 0.5 µM; ATP 10 µM
row,SMILES,residual activity [%]
1,CCOc1cc2ncnc(Nc3cccc(Br)c3)c2cc1OCC,102
2,O=C1NC(=O)c2c1c1c3ccccc3[nH]c1c1[nH]c3cc(Br)ccc3c21,74.4
3,O=c1[nH]c2ccccc2n1C1CCN(Cc2ccc(-c3nc4cc5[nH]cnc5cc4nc3-c3ccccc3)cc2)CC1,101
4,COc1cccc(-c2cc(=O)c3ccccc3o2)c1N,97.5

# Molecular target: FGFR4 (human) (UniProt P22455)
# Sequence (P22455 whole entry, looked up): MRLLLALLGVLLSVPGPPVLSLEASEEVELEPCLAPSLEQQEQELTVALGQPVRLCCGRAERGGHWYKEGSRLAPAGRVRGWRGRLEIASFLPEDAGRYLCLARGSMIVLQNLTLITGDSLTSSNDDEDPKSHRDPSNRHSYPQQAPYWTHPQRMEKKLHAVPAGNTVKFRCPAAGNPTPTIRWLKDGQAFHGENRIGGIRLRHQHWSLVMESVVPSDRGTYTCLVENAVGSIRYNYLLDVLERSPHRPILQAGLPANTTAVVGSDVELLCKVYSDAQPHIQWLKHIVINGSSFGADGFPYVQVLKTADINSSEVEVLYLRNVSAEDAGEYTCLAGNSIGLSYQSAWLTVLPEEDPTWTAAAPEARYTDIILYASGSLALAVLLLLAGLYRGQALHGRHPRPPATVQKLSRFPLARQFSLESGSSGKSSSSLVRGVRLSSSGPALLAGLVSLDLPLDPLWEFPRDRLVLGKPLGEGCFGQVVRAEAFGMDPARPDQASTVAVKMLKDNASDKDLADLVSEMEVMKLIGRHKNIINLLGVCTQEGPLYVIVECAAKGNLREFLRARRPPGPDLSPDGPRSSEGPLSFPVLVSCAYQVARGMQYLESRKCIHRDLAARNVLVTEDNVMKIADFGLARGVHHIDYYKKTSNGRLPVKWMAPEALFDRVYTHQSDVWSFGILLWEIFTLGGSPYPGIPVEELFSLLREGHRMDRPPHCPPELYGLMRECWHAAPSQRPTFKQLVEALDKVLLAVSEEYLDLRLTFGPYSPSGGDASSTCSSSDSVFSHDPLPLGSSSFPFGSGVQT
# Assay: as above
# Conditions: compound 0.5 µM; ATP 10 µM
row,SMILES,residual activity [%]
1,CCOc1cc2ncnc(Nc3cccc(Br)c3)c2cc1OCC,87.1
2,O=C1NC(=O)c2c1c1c3ccccc3[nH]c1c1[nH]c3cc(Br)ccc3c21,90.6
3,O=c1[nH]c2ccccc2n1C1CCN(Cc2ccc(-c3nc4cc5[nH]cnc5cc4nc3-c3ccccc3)cc2)CC1,97.2
4,COc1cccc(-c2cc(=O)c3ccccc3o2)c1N,104

# Molecular target: MAP3K8 (human) (UniProt P41279)
# Assay: as above
# Conditions: compound 0.5 µM; ATP 10 µM
row,SMILES,residual activity [%]
1,CCOc1cc2ncnc(Nc3cccc(Br)c3)c2cc1OCC,106
2,O=C1NC(=O)c2c1c1c3ccccc3[nH]c1c1[nH]c3cc(Br)ccc3c21,89
3,O=c1[nH]c2ccccc2n1C1CCN(Cc2ccc(-c3nc4cc5[nH]cnc5cc4nc3-c3ccccc3)cc2)CC1,95.2
4,COc1cccc(-c2cc(=O)c3ccccc3o2)c1N,85.7
